# System: guinea pig gall bladder
# Experiment: Guinea pig gall bladder assay (contraction of isolated gallbladder rings)
# Type: cell-based
# Conditions: compounds tested at 1 μM, minimum of three determinations; for Emax at 1 µM: Cavia porcellus, read-out: Contraction (% sulfated CCK-8 maximal response)
# Source text: GUINEA PIG GALL BLADDER ASSAY Tissue Preparation: Gallbladders were removed from guinea pigs sacrificed by cervical dislocation. The isolated gallbladders were cleaned of adherent connective tissue and cut into two rings from each animal (2-4 mm in length). The rings were subsequently suspended in organ chambers containing a physiological salt solution of the following composition (mM): NaCl (118.4); KCl (4.7); MgSO4 ×H2 O (1.2); CaCl2 ×2H2 O (2.5); […] (1.2); NaHCO3 (25) and dextrose (11.1). The bathing solution was maintained at 37° C. and aerated with 95% O2 /5%CO2. Tissues were connected via gold chains and stainless steel mounting wires to isometric force displacement transducers (Grass, Model FT03 D). Responses were then recorded on a polygraph (Grass, Model 7E). […] Assay: Rings were gradually stretched (over a 120 min. period) to a basal resting tension of 1 gm which was maintained throughout the experiment. During the basal tension adjustment period, the rings were exposed to acetylcholine (ACH, 10^-6 M) four times to verify tissue contractility. The tissues were then exposed to a submaximal dose of sulfated CCK-8 (Sigma, 3×10^-9 M). After obtaining a stable response, the tissues were washed out 3 times rapidly and every 5 to 10 minutes for 1 hour to reestablish a stable baseline. Compounds were dissolved in dimethylsulfoxide (DMSO) then diluted with water and assayed via a cumulative concentration-response curve to test compound (10^-11 to 3×10^-6 M) followed by a concentration-response curve to sulfated CCK-8 (10^-10 to 10^-6 M) in the presence of the highest dose of the test compound. As a final test, ACH (10 mM) was added to induce maximal contraction. A minimum of three determinations of activity were made for each test compound. The compounds were tested at a concentration of 1 μM and the results expressed as % sulfated CCK-8 maximal response.
SMILES,Emax at 1 µM,Contraction (% sulfated CCK-8 maximal response)
"COc1ccc(N(C(=O)CN2C(=O)C(NC(=O)c3cc4ccccc4[nH]3)C(=O)N(c3ncccn3)c3ccccc32)C(C)C)cc1 (stereo not shown) [Example 5, 1H-Indole-2-carboxylic acid {1-[Isopropyl-(4-methoxy-phenyl)-carbamoylmethyl]-2,4-dioxo-5-pyrimidin-2-yl-2,3,4,5-tetrahydro-1H-benzo[b][1,4]diazepin-3-yl}-amide]",51%,
"COc1ccc(N(C(=O)CN2C(=O)C(NC(=O)c3cc4ccccc4[nH]3)C(=O)N(c3cccnc3)c3ccccc32)C(C)C)cc1 (single isomer, unassigned) [Example 15, (+) or (-) 1H-Indole-2-carboxylic acid [I-[isopropyl-(4-methoxyphenyl)-carbamoylmethyl]-2,4-dioxo-5-pyridin-3-yl-2,3,4,5-tetrahydro-1H-benzo[b][1,4]diazepin-3-yl]amide]",,93%
"COc1ccc(N(C(=O)CN2C(=O)C(NC(=O)Nc3ccccc3)C(=O)N(c3cccnc3)c3ccccc32)C(C)C)cc1 (stereo not shown) [Example 8, 2-[2,4-dioxo-3-(3-phenyl-ureido)-5-pyridin-3-yl-2,3,4,5-tetrahydrobenzo[b][1,4]diazepin-1-yl]-N-isopropyl-N-(4-methoxy-phenyl) acetamide]",81%,
"COc1ccc(N(C(=O)CN2C(=O)C(NC(=O)c3cc4ccccc4[nH]3)C(=O)N(c3ccccn3)c3ccccc32)C(C)C)cc1 (stereo not shown) [Example 2, 1H-Indole-2-carboxylic acid {1-[Isopropyl-(4-methoxy-phenyl)-carbamoylmethyl]-2,4-dioxo-5-pyrdin-2-yl-2,3,4,5-tetrahydro-1H-benzo[b][1,4]diazepin-3-yl}-amide]",64%,
"COc1ccc(N(C(=O)CN2C(=O)C(NC(=O)c3cc4ccccc4[nH]3)C(=O)N(c3cccnc3)c3ccccc32)C(C)C)cc1 (single isomer, unassigned) [Example 14, (+) or (-) 1H-Indole-2-carboxylic acid [I-[isopropyl-(4-methoxyphenyl)-carbamoylmethyl]-2,4-dioxo-5-pyridin-3-yl-2,3,4,5-tetrahydro-1H-benzo[b][1,4]diazepin-3-yl]amide]",84%,
"COc1ccc(N(C(=O)CN2C(=O)C(NC(=O)c3cc4ccccc4[nH]3)C(=O)N(c3ccncc3)c3ccccc32)C(C)C)cc1 (stereo not shown) [Example 11, 1H-Indole-2-carboxylic acid {1-[Isopropyl-(4-methoxy-phenyl)-carbamoylmethyl]-2,4-indoledioxo-5-pyridin4-yl-2,3,4,5,5a, 9a-hexahydro-1H-benzo[b][1,4]diazepin-3-yl}-amide]",67%,
"COc1ccc(N(C(=O)CN2C(=O)C(NC(=O)c3cc4ccccc4[nH]3)C(=O)N(c3cccnc3)c3ccccc32)C(C)C)cc1 (stereo not shown) [Example 7, 1H-Indole-2-carboxylic acid {1[isopropyl-(4-methoxy-phenyl)-carbamoylmethyl]-2,4-dioxo-5-pyridin-3-yl-2,3,4,5-tetrahydro-1H-benzo[b][1,4]diazepin-3-yl}-amide]",77%,
"COc1ccc(N(C(=O)CN2C(=O)C(NC(=O)c3cc4ccccc4[nH]3)C(=O)N(c3ccccn3)c3ccccc32)C(C)C)cc1 (single isomer, unassigned) [Example 3, (+) or (-) 1H-Indole-2-carboxylic acid {1-[Isopropyl-(4-methoxy-phenyl)-carbamoylmethyl]-2,4-dioxo-5-pyridin-2-yl-2,3,4,5-tetrahydro-1H-benzo[b][1,4]diazepin-3-yl}-amide]",83%,
"COc1ccc(N(C(=O)CN2C(=O)C(NC(=O)Nc3cccc(C(=O)O)c3)C(=O)N(c3cccnc3)c3cc(F)ccc32)C(C)C)cc1 (stereo not shown) [Example 13, 3-(3-{7-Fluoro-1-[isopropyl-(4-methoxy-phenyl)-carbamoylmethyl]-2,4-dioxo-5-pyridin-3-yl-2,3,4,5-tetrahydro-1H-benzo[b][1,4]diazepin-3-yl}-ureido)-benzoic acid]",96%,
"COc1ccc(N(C(=O)CN2C(=O)C(NC(=O)Nc3ccccc3)C(=O)N(c3ccccn3)c3ccccc32)C(C)C)cc1 (stereo not shown) [Example 1, 2-[2,4-Dioxo-3-(3-phenyl-ureido)-5-pyridin-2-yl-2,3,4,5-tetrahydrobenzo[b][1,4]diazepin-1-yl]-N-isopropyl-N-(4-methoxy-phenyl)-acetamide]",91%,
"COc1ccc(N(C(=O)CN2C(=O)C(NC(=O)Nc3cccc(C(=O)O)c3)C(=O)N(c3cccnc3)c3ccccc32)C(C)C)cc1 (stereo not shown) [Example 10, 3-(3-{1-[isopropyl-(4-methoxy-phenyl)-carbamoylmethyl]-2,4-dioxo-5-pyridin-3-yl-2,3,4,5-tetrahydro-1H-benzo[b][1,4]diazepin-3-yl}-ureido)-benzoic acid]",83%,
"COc1ccc(N(C(=O)CN2C(=O)C(NC(=O)c3cc4ccccc4[nH]3)C(=O)N(c3c(C)nn(C)c3C)c3ccccc32)C(C)C)cc1 (stereo not shown) [Example 6, 1H-Indole-2-carboxylic acid [1-[isopropyl-(4-methoxy-phenyl)-carbamoylmethyl]-2,4-dioxo-5-(1,3,5-trimethyl-1H-pyrazol-4-yl)-2,3,4,5-tetrahydro-1H-benzo[b][1,4]diazepin-3-yl]-amide]",32%,
"COc1ccc(N(C(=O)CN2C(=O)C(NC(=O)c3cc4ccccc4[nH]3)C(=O)N(c3ccccn3)c3ccccc32)C(C)C)cc1 (single isomer, unassigned) [Example 4, (+) or (-) 1H-Indole-2-carboxylic acid {1-[Isopropyl-(4-methoxy-phenyl)-carbamoylmethyl]-2,4-dioxo-5-pyridin-2-yl-2,3,4,5-tetrahydro-1H-benzo[b][1,4]diazepin-3-yl}-amide]",,67%
